Like-named read-outs stand apart in the source and are kept apart here.
How the values were obtained:
Format in all cases: binding
broad panel of kinases [1] = target: broad panel of kinases (Homo sapiens, UniProt P06241); details: FYN; 1 μM
broad panel of kinases [2] = target: broad panel of kinases (Homo sapiens, UniProt P36894); details: BMPR1A; 1 μM
broad panel of kinases [3] = target: broad panel of kinases (Homo sapiens, UniProt Q86V86); details: PIM3; 1 μM
broad panel of kinases [4] = target: broad panel of kinases (Homo sapiens, UniProt Q9H2K8); details: TAOK3; 1 μM
broad panel of kinases [5] = target: broad panel of kinases (Homo sapiens, UniProt Q2M2I8); details: AAK1; 1 μM
broad panel of kinases [6] = target: broad panel of kinases (Homo sapiens, UniProt P30530); details: AXL; 1 μM
broad panel of kinases [7] = target: broad panel of kinases (Homo sapiens, UniProt O96017); details: CHEK2; 1 μM
broad panel of kinases [8] = target: broad panel of kinases (Homo sapiens, UniProt P21802); details: FGFR2; 1 μM
broad panel of kinases [9] = target: broad panel of kinases (Homo sapiens, UniProt P51617); details: IRAK1; 1 μM
broad panel of kinases [10] = target: broad panel of kinases (Homo sapiens, UniProt Q99755); details: PIP5K1A; 1 μM
broad panel of kinases [11] = target: broad panel of kinases (Homo sapiens, UniProt P37023); details: ACVRL1; 1 μM
broad panel of kinases [12] = target: broad panel of kinases (Homo sapiens, UniProt Q96PY6); details: NEK1; 1 μM
broad panel of kinases [13] = target: broad panel of kinases (Homo sapiens, UniProt Q16566); details: CAMK4; 1 μM
broad panel of kinases [14] = target: broad panel of kinases (Homo sapiens, UniProt P37173); details: TGFBR2; 1 μM
broad panel of kinases [15] = target: broad panel of kinases (Homo sapiens, UniProt Q8IVW4); details: CDKL3; 1 μM
broad panel of kinases [16] = target: broad panel of kinases (Homo sapiens, UniProt P07949, V804M); details: RET(V804M); 1 μM
Chain of broad panel of kinases (Homo sapiens, UniProt P07949, V804M) (P07949 29-1114 V804M limits assumed): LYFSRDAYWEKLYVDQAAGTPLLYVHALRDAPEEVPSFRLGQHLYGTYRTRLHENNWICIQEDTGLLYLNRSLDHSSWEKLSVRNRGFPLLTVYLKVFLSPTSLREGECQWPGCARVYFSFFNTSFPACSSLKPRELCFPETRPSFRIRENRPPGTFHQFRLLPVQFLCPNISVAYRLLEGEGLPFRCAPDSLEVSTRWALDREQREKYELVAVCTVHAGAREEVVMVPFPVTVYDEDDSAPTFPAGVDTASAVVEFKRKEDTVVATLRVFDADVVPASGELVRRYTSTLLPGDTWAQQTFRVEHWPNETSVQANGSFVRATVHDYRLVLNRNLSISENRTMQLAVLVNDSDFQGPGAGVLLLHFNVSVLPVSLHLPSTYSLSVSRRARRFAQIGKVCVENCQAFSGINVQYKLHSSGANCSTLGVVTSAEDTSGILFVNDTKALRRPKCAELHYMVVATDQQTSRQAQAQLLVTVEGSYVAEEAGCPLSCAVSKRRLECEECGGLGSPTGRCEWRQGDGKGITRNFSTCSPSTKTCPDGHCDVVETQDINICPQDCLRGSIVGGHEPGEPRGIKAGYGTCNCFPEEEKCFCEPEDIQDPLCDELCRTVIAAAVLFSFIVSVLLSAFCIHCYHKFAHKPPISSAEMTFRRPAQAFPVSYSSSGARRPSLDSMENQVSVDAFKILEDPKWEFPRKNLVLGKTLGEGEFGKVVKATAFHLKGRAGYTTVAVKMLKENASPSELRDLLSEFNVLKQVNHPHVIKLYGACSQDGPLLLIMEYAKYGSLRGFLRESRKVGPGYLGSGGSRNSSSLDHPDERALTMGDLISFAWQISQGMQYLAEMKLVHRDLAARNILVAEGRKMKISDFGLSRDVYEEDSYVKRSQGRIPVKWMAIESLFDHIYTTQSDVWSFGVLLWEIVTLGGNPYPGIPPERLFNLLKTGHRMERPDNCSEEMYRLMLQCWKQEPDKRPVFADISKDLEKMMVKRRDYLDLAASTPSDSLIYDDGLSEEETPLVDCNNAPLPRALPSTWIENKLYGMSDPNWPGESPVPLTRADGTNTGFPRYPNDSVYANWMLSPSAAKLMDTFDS

broad panel of kinases [17] = target: broad panel of kinases (Homo sapiens, UniProt P36888); details: 1 μM
Chain of broad panel of kinases (Homo sapiens, UniProt P36888) (P36888 27-993 limits assumed): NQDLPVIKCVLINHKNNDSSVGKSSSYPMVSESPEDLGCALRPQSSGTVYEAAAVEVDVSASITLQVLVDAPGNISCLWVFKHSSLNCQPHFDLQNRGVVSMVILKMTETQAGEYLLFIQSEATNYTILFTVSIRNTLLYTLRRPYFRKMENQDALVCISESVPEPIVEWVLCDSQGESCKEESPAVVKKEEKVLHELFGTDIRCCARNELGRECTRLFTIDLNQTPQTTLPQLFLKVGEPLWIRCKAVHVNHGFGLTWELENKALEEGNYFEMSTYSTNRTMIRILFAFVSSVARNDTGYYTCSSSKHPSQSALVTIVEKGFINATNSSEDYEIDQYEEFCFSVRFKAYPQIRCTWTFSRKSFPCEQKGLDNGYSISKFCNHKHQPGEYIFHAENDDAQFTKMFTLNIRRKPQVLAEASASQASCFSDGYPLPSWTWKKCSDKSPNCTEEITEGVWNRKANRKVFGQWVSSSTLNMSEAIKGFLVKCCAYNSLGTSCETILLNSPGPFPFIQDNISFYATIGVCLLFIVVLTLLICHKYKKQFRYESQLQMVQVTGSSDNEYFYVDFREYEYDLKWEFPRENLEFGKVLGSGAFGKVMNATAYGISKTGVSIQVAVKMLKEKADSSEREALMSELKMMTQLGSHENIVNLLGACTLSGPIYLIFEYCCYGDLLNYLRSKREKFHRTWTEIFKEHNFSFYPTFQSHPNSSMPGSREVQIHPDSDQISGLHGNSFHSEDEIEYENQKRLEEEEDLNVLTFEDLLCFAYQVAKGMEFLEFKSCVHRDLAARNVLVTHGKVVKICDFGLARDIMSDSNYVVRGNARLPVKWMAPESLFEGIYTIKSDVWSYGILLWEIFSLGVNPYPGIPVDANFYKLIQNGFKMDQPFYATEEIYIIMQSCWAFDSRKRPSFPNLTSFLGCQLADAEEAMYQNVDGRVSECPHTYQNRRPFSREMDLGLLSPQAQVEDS

broad panel of kinases [18] = target: broad panel of kinases (Homo sapiens, UniProt P29317); details: EPHA2; 1 μM
broad panel of kinases [19] = target: broad panel of kinases (Homo sapiens, UniProt P29376); details: LTK; 1 μM
broad panel of kinases [20] = target: broad panel of kinases (Homo sapiens, UniProt P51812); details: 1 μM
broad panel of kinases [21] = target: broad panel of kinases (Homo sapiens, UniProt P36897); details: TGFBR1; 1 μM
broad panel of kinases [22] = target: broad panel of kinases (Homo sapiens, UniProt Q9UQM7); details: CAMK2A; 1 μM
broad panel of kinases [23] = target: broad panel of kinases (Homo sapiens, UniProt Q08345); details: DDR1; 1 μM
broad panel of kinases [24] = target: broad panel of kinases (Homo sapiens, UniProt P51955); details: NEK2; 1 μM
broad panel of kinases [25] = target: broad panel of kinases (Homo sapiens, UniProt P00533, DEL746-750); details: EGFR(E746-A750del); 1 μM
Chain of broad panel of kinases (Homo sapiens, UniProt P00533, DEL746-750) (P00533 with tags, fused parts or gaps DEL746-750 limits assumed): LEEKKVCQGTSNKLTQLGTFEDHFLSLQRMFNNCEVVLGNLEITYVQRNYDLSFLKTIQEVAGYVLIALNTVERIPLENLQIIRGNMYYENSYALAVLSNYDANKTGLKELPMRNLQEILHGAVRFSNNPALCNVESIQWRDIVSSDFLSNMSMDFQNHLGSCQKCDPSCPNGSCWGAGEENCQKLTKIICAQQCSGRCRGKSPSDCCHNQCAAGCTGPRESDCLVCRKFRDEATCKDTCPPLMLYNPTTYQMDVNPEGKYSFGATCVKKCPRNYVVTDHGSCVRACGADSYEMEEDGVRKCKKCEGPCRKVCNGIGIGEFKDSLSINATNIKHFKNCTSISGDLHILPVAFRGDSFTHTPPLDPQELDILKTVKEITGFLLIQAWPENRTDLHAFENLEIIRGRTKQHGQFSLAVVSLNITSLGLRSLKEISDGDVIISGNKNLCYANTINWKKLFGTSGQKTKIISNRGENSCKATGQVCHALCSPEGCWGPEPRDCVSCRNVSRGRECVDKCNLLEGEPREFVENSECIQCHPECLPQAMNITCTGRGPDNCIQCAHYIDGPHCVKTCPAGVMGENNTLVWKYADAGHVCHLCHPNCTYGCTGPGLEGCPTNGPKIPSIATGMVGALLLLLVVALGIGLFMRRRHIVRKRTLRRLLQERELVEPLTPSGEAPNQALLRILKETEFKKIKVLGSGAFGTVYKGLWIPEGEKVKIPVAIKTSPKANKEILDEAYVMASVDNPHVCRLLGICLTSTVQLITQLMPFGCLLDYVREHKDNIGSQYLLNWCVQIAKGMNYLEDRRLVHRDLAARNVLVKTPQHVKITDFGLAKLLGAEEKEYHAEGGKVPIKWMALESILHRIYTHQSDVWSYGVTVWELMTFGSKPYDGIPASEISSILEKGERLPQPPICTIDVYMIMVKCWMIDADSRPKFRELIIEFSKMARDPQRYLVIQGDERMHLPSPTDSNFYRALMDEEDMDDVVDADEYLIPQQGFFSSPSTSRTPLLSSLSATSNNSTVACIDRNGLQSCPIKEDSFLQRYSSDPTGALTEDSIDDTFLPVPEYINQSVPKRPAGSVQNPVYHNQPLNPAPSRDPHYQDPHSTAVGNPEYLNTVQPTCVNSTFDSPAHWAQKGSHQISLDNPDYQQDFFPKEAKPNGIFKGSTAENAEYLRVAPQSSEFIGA

broad panel of kinases [26] = target: broad panel of kinases (Homo sapiens, UniProt P57058); details: HUNK; 1 μM
broad panel of kinases [27] = target: broad panel of kinases (Homo sapiens, UniProt Q8TD08); details: ERK8; 1 μM
broad panel of kinases [28] = target: broad panel of kinases (Homo sapiens, UniProt Q13043); details: MST1; 1 μM
broad panel of kinases [29] = target: broad panel of kinases (Homo sapiens, UniProt O00750); details: PIK3C2B; 1 μM
broad panel of kinases [30] = target: broad panel of kinases (Homo sapiens, UniProt Q9UL54); details: TAOK2; 1 μM
broad panel of kinases [31] = target: broad panel of kinases (Homo sapiens, UniProt P31152); details: ERK4; 1 μM
broad panel of kinases [32] = target: broad panel of kinases (Homo sapiens, UniProt P78368); details: CSNK1G2; 1 μM
broad panel of kinases [33] = target: broad panel of kinases (Homo sapiens, UniProt O76039); details: CDKL5; 1 μM
broad panel of kinases [34] = target: broad panel of kinases (Homo sapiens, UniProt P11802); details: 1 μM
Chain of broad panel of kinases (Homo sapiens, UniProt P11802) (P11802 2-303 limits assumed): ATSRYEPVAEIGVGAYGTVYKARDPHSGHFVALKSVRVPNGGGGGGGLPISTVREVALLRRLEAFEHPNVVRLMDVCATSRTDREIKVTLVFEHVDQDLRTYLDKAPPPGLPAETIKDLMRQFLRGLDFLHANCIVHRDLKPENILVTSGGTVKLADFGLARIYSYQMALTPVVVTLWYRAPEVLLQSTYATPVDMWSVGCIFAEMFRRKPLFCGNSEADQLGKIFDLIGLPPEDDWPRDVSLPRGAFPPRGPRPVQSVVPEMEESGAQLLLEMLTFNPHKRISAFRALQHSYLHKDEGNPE

broad panel of kinases [35] = target: broad panel of kinases (Homo sapiens, UniProt P10721, V559D); details: KIT(V559D); 1 μM
Chain of broad panel of kinases (Homo sapiens, UniProt P10721, V559D) (P10721 26-976 V559D limits assumed): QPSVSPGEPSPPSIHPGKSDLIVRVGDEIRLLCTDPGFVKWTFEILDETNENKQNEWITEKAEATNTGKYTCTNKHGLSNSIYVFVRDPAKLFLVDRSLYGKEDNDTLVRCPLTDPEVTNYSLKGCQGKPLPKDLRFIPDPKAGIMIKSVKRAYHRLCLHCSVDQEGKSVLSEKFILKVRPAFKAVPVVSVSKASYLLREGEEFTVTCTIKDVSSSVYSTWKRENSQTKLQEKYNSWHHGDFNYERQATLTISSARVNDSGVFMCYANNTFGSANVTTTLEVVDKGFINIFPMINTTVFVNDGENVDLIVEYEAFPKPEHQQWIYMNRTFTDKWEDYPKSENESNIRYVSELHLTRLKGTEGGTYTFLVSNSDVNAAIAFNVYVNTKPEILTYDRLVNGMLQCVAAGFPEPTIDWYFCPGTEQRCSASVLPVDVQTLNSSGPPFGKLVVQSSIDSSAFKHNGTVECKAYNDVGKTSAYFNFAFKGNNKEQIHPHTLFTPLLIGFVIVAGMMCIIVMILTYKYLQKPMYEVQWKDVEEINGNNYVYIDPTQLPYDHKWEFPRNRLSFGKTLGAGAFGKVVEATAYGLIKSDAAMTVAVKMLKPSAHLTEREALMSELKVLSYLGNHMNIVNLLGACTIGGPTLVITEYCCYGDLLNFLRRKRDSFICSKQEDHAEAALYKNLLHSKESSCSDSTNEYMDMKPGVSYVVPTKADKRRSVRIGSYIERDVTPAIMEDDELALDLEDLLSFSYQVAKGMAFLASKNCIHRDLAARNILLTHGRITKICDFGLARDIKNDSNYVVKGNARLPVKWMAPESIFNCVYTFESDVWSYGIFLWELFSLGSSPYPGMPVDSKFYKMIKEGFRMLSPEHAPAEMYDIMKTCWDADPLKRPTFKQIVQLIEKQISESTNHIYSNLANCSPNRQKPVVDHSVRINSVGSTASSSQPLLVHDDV

broad panel of kinases [36] = target: broad panel of kinases (Homo sapiens, UniProt Q8IVH8); details: MAP4K3; 1 μM

Chain of broad panel of kinases (Homo sapiens, UniProt P06241) (P06241 2-537 limits assumed): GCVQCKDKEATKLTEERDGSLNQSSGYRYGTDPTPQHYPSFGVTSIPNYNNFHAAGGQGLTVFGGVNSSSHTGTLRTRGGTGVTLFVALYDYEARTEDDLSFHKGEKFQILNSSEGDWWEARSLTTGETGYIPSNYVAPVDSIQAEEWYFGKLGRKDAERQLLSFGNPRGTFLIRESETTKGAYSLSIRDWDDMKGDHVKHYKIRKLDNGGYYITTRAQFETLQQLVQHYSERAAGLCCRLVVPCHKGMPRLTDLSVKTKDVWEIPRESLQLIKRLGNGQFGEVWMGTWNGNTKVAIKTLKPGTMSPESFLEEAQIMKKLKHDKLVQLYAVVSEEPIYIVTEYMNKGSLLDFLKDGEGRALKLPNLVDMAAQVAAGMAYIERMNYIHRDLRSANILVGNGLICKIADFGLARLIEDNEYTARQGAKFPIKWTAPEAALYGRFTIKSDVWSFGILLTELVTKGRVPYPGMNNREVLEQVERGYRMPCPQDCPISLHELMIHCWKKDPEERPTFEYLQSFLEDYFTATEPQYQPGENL

How did the “percent of control binding remaining (lower = stronger binding)” value (broad panel of kinases [1]) turn out when `C=CC(=O)N1CC[C@H](Nc2nc(CN3CCOCC3)cc(Nc3ncc(C(=O)Nc4c(C)cccc4C)s3)n2)C1` [Example I-2] was run?
The value was 0.3%.

What about the “percent of control binding remaining (lower = stronger binding)” value (broad panel of kinases [2]) of the same molecule?
The value was 100%.

And the “percent of control binding remaining (lower = stronger binding)” value (broad panel of kinases [3])?
The value was 97%.

And the “percent of control binding remaining (lower = stronger binding)” value (broad panel of kinases [4])?
Its value is 81%.

What about the “percent of control binding remaining (lower = stronger binding)” value (broad panel of kinases [5]) of the same molecule?
Its value is 97%.

What about the “percent of control binding remaining (lower = stronger binding)” value (broad panel of kinases [6]) of the same molecule?
The value was 96%.

And the “percent of control binding remaining (lower = stronger binding)” value (broad panel of kinases [7])?
Its value is 97%.

And the “percent of control binding remaining (lower = stronger binding)” value (broad panel of kinases [8])?
The value was 73%.

And the “percent of control binding remaining (lower = stronger binding)” value (broad panel of kinases [9])?
Its value is 84%.

What about the “percent of control binding remaining (lower = stronger binding)” value (broad panel of kinases [10]) of the same molecule?
The value was 92%.

And the “percent of control binding remaining (lower = stronger binding)” value (broad panel of kinases [11])?
Its value is 54%.

What about the “percent of control binding remaining (lower = stronger binding)” value (broad panel of kinases [12]) of the same molecule?
The value was 88%.

And the “percent of control binding remaining (lower = stronger binding)” value (broad panel of kinases [13])?
The value was 96%.

What about the “percent of control binding remaining (lower = stronger binding)” value (broad panel of kinases [14]) of the same molecule?
The value was 94%.

What about the “percent of control binding remaining (lower = stronger binding)” value (broad panel of kinases [15]) of the same molecule?
Its value is 98%.

And the “percent of control binding remaining (lower = stronger binding)” value (broad panel of kinases [16])?
Its value is 100%.

What about the “percent of control binding remaining (lower = stronger binding)” value (broad panel of kinases [17]; FLT3-autoinhibited) of the same molecule?
The value was 100%.

What about the “percent of control binding remaining (lower = stronger binding)” value (broad panel of kinases [17]; FLT3) of the same molecule?
The value was 100%.

And the “percent of control binding remaining (lower = stronger binding)” value (broad panel of kinases [18])?
The value was 0.2%.

And the “percent of control binding remaining (lower = stronger binding)” value (broad panel of kinases [19])?
The value was 100%.

And the “percent of control binding remaining (lower = stronger binding)” value (broad panel of kinases [20]; RSK2(Kin.Dom.1-N-terminal))?
Its value is 95%.

What about the “percent of control binding remaining (lower = stronger binding)” value (broad panel of kinases [20]; RSK2(Kin.Dom.2-C-terminal)) of the same molecule?
The value was 100%.

And the “percent of control binding remaining (lower = stronger binding)” value (broad panel of kinases [21])?
Its value is 50%.

What about the “percent of control binding remaining (lower = stronger binding)” value (broad panel of kinases [22]) of the same molecule?
Its value is 86%.

And the “percent of control binding remaining (lower = stronger binding)” value (broad panel of kinases [23])?
The value was 0.2%.

And the “percent of control binding remaining (lower = stronger binding)” value (broad panel of kinases [24])?
Its value is 100%.

And the “percent of control binding remaining (lower = stronger binding)” value (broad panel of kinases [25])?
Its value is 3.7%.

What about the “percent of control binding remaining (lower = stronger binding)” value (broad panel of kinases [26]) of the same molecule?
The value was 100%.

What about the “percent of control binding remaining (lower = stronger binding)” value (broad panel of kinases [27]) of the same molecule?
The value was 97%.

And the “percent of control binding remaining (lower = stronger binding)” value (broad panel of kinases [28])?
The value was 100%.

And the “percent of control binding remaining (lower = stronger binding)” value (broad panel of kinases [29])?
Its value is 86%.

And the “percent of control binding remaining (lower = stronger binding)” value (broad panel of kinases [30])?
The value was 65%.

What about the “percent of control binding remaining (lower = stronger binding)” value (broad panel of kinases [31]) of the same molecule?
The value was 90%.

What about the “percent of control binding remaining (lower = stronger binding)” value (broad panel of kinases [32]) of the same molecule?
The value was 97%.

And the “percent of control binding remaining (lower = stronger binding)” value (broad panel of kinases [33])?
Its value is 100%.

What about the “percent of control binding remaining (lower = stronger binding)” value (broad panel of kinases [34]; CDK4-cyclinD1) of the same molecule?
Its value is 96%.

What about the “percent of control binding remaining (lower = stronger binding)” value (broad panel of kinases [34]; CDK4-cyclinD3) of the same molecule?
Its value is 94%.

And the “percent of control binding remaining (lower = stronger binding)” value (broad panel of kinases [35])?
The value was 0%.

And the “percent of control binding remaining (lower = stronger binding)” value (broad panel of kinases [36])?
The value was 100%.

With `C=CC(=O)N1CC[C@H](Nc2nccc(Nc3ncc(C(=O)Nc4c(C)cccc4C)s3)n2)C1` [Example I-3] as the molecule, how does the “percent of control binding remaining (lower = stronger binding)” value (broad panel of kinases [1]) read?
The value was 0.5%.

And the “percent of control binding remaining (lower = stronger binding)” value (broad panel of kinases [2])?
Its value is 92%.

And the “percent of control binding remaining (lower = stronger binding)” value (broad panel of kinases [3])?
Its value is 89%.

What about the “percent of control binding remaining (lower = stronger binding)” value (broad panel of kinases [4]) of the same molecule?
The value was 91%.

What about the “percent of control binding remaining (lower = stronger binding)” value (broad panel of kinases [5]) of the same molecule?
Its value is 100%.

And the “% change compared to control” value (broad panel of kinases [6])?
The value was 76%.

And the “percent of control binding remaining (lower = stronger binding)” value (broad panel of kinases [7])?
The value was 97%.

And the “percent of control binding remaining (lower = stronger binding)” value (broad panel of kinases [8])?
The value was 88%.

And the “percent of control binding remaining (lower = stronger binding)” value (broad panel of kinases [9])?
Its value is 93%.

And the “percent of control binding remaining (lower = stronger binding)” value (broad panel of kinases [10])?
The value was 91%.

What about the “percent of control binding remaining (lower = stronger binding)” value (broad panel of kinases [11]) of the same molecule?
The value was 76%.

What about the “percent of control binding remaining (lower = stronger binding)” value (broad panel of kinases [12]) of the same molecule?
The value was 85%.

What about the “percent of control binding remaining (lower = stronger binding)” value (broad panel of kinases [13]) of the same molecule?
The value was 84%.

And the “percent of control binding remaining (lower = stronger binding)” value (broad panel of kinases [14])?
Its value is 100%.

What about the “percent of control binding remaining (lower = stronger binding)” value (broad panel of kinases [15]) of the same molecule?
Its value is 81%.

What about the “percent of control binding remaining (lower = stronger binding)” value (broad panel of kinases [16]) of the same molecule?
Its value is 100%.

And the “percent of control binding remaining (lower = stronger binding)” value (broad panel of kinases [17]; FLT3-autoinhibited)?
The value was 100%.

And the “percent of control binding remaining (lower = stronger binding)” value (broad panel of kinases [17]; FLT3)?
Its value is 84%.

What about the “percent of control binding remaining (lower = stronger binding)” value (broad panel of kinases [18]) of the same molecule?
Its value is 0.6%.

And the “percent of control binding remaining (lower = stronger binding)” value (broad panel of kinases [19])?
The value was 100%.

And the “percent of control binding remaining (lower = stronger binding)” value (broad panel of kinases [20]; RSK2(Kin.Dom.1-N-terminal))?
Its value is 97%.

What about the “percent of control binding remaining (lower = stronger binding)” value (broad panel of kinases [20]; RSK2(Kin.Dom.2-C-terminal)) of the same molecule?
Its value is 100%.

And the “percent of control binding remaining (lower = stronger binding)” value (broad panel of kinases [21])?
The value was 97%.

What about the “percent of control binding remaining (lower = stronger binding)” value (broad panel of kinases [22]) of the same molecule?
Its value is 83%.

And the “percent of control binding remaining (lower = stronger binding)” value (broad panel of kinases [23])?
The value was 0.15%.

What about the “percent of control binding remaining (lower = stronger binding)” value (broad panel of kinases [24]) of the same molecule?
The value was 96%.

And the “percent of control binding remaining (lower = stronger binding)” value (broad panel of kinases [25])?
Its value is 2.9%.

What about the “percent of control binding remaining (lower = stronger binding)” value (broad panel of kinases [26]) of the same molecule?
The value was 83%.

What about the “percent of control binding remaining (lower = stronger binding)” value (broad panel of kinases [27]) of the same molecule?
Its value is 99%.

And the “percent of control binding remaining (lower = stronger binding)” value (broad panel of kinases [28])?
The value was 97%.

And the “percent of control binding remaining (lower = stronger binding)” value (broad panel of kinases [29])?
The value was 47%.

And the “percent of control binding remaining (lower = stronger binding)” value (broad panel of kinases [30])?
The value was 67%.

What about the “percent of control binding remaining (lower = stronger binding)” value (broad panel of kinases [31]) of the same molecule?
Its value is 62%.

And the “percent of control binding remaining (lower = stronger binding)” value (broad panel of kinases [32])?
The value was 93%.

What about the “percent of control binding remaining (lower = stronger binding)” value (broad panel of kinases [33]) of the same molecule?
The value was 100%.

And the “percent of control binding remaining (lower = stronger binding)” value (broad panel of kinases [34]; CDK4-cyclinD1)?
Its value is 99%.

What about the “percent of control binding remaining (lower = stronger binding)” value (broad panel of kinases [34]; CDK4-cyclinD3) of the same molecule?
Its value is 95%.

And the “percent of control binding remaining (lower = stronger binding)” value (broad panel of kinases [35])?
The value was 0%.

And the “percent of control binding remaining (lower = stronger binding)” value (broad panel of kinases [36])?
Its value is 100%.
